From patent publication US8153581B2, “Process for producing an injectable medicament preparation” (KTB Tumorforschungs GmbH, priority 1999, dated 2012) come the findings set out here.

Read-outs that look alike come from different tables or passages of the source.

For data set [1], the target named is T1, albumin (Homo sapiens, UniProt P02768). As to conditions: 37° C.
Experimental: In this experiment, the plasma sample was separated, after the incubation had taken place, on a POROS®-20 anion exchange column (the proteins were detected at 254 nm while the anthracycline was detected by fluorescence).
1.4 mg of 2 (Mr 1374) are dissolved, at room temperature, in 1.0 ml of phosphate buffer (0.15 M NaCl, 0.004 M sodium phosphate, pH 6.5) (1000 μm solution).
Data set [2] deals with T1, albumin. Nature of the data set: Incubation with human plasma, gel filtration chromatography (Superdex 200). In kind it is in vitro ADME. Also noted: with 1.0 ml of human plasma; from tissue; host or cells: human blood plasma. As to conditions: 250 μl of 100 μM solution with 1.0 ml human plasma, 5 minutes. In general terms: Size exclusion chromatography separates by hydrodynamic size, large species first.

Data set [3] is described as follows: RENCA model, body weight change. In kind it is in vivo, Balc/c mice. Conditions: i.v. on d 10, 13, 17 and 20; approximately equitoxic doses. The text has this:
(§1) The biological data listed below clarify the in vivo activity of DOXO-HYD as compared with that of free doxorubicin: in what is termed the RENCA (renal cell carcinoma)-model, doxorubicin and DOXO-HYD were compared with each other, at approximately equitoxic doses, as regards their antitumour activity (intravenous therapy 10 days after injecting about 1 million kidney carcinoma cells into the left kidney).
(§2) Animals: Balc/c mice, female; Tumour: RENCA, renal cell carcinoma
(§3) Therapy: Intravenous (i.v.) on day (d) 10, 13, 17 and 20, end of experiment on d24

For data set [4], the system named is RENCA, renal cell carcinoma. The experiment in a line: RENCA (renal cell carcinoma) model, antitumour activity. In kind it is in vivo, Balc/c mice.
Source text: as §1, §2, §3

Setting [5] is: as compared with the control group and the doxorubicin-treated group, 4 × 20 mmol/kg i.v.

T1 sequence (P02768 25-609): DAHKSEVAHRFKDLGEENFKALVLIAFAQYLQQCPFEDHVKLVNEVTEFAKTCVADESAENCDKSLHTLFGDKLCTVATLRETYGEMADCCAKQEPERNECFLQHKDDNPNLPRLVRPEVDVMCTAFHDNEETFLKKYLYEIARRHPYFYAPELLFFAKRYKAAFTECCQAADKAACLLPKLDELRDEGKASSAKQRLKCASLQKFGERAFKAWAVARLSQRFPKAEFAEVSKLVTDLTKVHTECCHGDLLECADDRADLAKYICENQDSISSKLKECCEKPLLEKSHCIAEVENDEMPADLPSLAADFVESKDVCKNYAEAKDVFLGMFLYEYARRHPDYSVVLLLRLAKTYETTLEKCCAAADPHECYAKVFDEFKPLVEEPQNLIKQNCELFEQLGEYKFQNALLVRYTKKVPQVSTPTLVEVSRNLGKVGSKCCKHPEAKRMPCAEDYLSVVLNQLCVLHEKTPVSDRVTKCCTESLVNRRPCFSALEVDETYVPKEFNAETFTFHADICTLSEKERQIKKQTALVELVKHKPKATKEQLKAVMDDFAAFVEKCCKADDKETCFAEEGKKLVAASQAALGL

In the case of `COc1cccc2c1C(=O)c1c(O)c3c(c(O)c1C2=O)C[C@@](O)(C(CO)=NNC(=O)CCCCCN1C(=O)C=CC1=O)C[C@@H]3O[C@H]1C[C@H](N)[C@H](O)[C@H](C)O1` [DOXO-EMCH, 6-maleimidocaproic acid hydrazone derivative of doxorubicin], the “binding to albumin in human plasma” value at albumin [1] (250μ of 2000 μM solution with 1.0 ml human plasma, 30 seconds) is reported as “majority of the DOXO-EMCH is bound to albumin”.

For `O=C(O)c1cc(N2C(=O)C=CC2=O)ccc1-c1c2ccc(=O)cc-2oc2cc(O)ccc12` [fluoresceinmaleimide], at albumin [2], the “binding to albumin in human plasma” value was “majority of the fluoresceinmaleimide is bound to albumin”.

`COc1cccc2c1C(=O)c1c(O)c3c(c(O)c1C2=O)C[C@@](O)(/C(CO)=N/NC(=O)Cc1ccc(N2C(=O)C=CC2=O)cc1)C[C@@H]3OC1CC(C)C(O)C(N)C1.Cl` (some centres unmarked) [DOXO-HYD]: at albumin [1] (human blood plasma, 5 minutes of incubation), the “covalent binding to albumin in human blood plasma” value was “most of the DOXO-HYD is covalently bonded to the albumin”. In addition, the “Average decrease in body weight (%) d 1-24” value in data set [3] is −15%. Also, the antitumour activity entry in data set [4] (RENCA model, i.v. d 10, 13, 17, 20, 4 × 20 mmol/kg, end d24) is listed as “very good antitumour activity”. Besides, in data set [4] (setting [5]), the kidney tumour volume result is listed as “marked reduction” and the “number of lung metastases” value is listed as “marked reduction”.

For `COc1cccc2c1C(=O)c1c(O)c3c(c(O)c1C2=O)C[C@@](O)(C(=O)CO)C[C@@H]3O[C@H]1C[C@H](N)[C@H](O)[C@H](C)O1` [Doxorubicin, doxorubicin, reference compound], the “Average decrease in body weight (%) d 1-24” value in data set [3] was −15%.
